Source: the supplement of paper PMC10307832

Key:
Test in all cases: relative viability (nuclei count vs DMSO), 5 days (fraction); higher = more cells survive
Bicalutamide + OSI-027 = compound: CC(O)(CS(=O)(=O)c1ccc(F)cc1)C(=O)Nc1ccc(C#N)c(C(F)(F)F)c1 [Bicalutamide] + COc1cccc2cc(-c3nc([C@H]4CC[C@H](C(=O)O)CC4)n4ncnc(N)c34)[nH]c12 [OSI-027] (partner 0.5 µM)
Method in brief: (§1)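 Five library-drug doses in √10 steps were combined with a fixed anchor-drug dose, or a single drug was given alone, by pin tool to lung cancer cell lines in 1536-well plates the day after seeding. Nuclei were stained and counted after 5 days. Relative viability is the nuclei count in treated wells over that in vehicle wells, taken as the median of duplicate plates.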

[1] = compound: C(C(=O)C(=O)O)Br [Bromopyruvate] + Nc1nc2[nH]cc(CCc3ccc(C(=O)N[C@@H](CCC(=O)O)C(=O)O)cc3)c2c(=O)[nH]1 [Pemetrexed] (partner 0.2 µM)
Method in brief: as §1

Bicalutamide + Olaparib = compound: CC(O)(CS(=O)(=O)c1ccc(F)cc1)C(=O)Nc1ccc(C#N)c(C(F)(F)F)c1 [Bicalutamide] + O=C(c1cc(Cc2n[nH]c(=O)c3ccccc23)ccc1F)N1CCN(C(=O)C2CC2)CC1 [Olaparib] (partner 8 µM)
Method in brief: as §1

[2] = compound: CC(O)(CS(=O)(=O)c1ccc(F)cc1)C(=O)Nc1ccc(C#N)c(C(F)(F)F)c1 [Bicalutamide] + Nc1ncn([C@H]2C[C@H](O)[C@@H](CO)O2)c(=O)n1 [Decitabine] (partner 2 µM)
Method in brief: as §1

Cell Line: BEN
- relative viability (Bicalutamide + OSI-027; first compound 0.08 µM): 0.265
- relative viability (Bicalutamide + OSI-027; first compound 0.253 µM): 0.299
- relative viability (Bicalutamide + OSI-027; first compound 0.8 µM): 0.274
- relative viability (Bicalutamide + OSI-027; first compound 2.53 µM): 0.276
- relative viability ([1]; first compound 1 µM): 0.87
- relative viability ([1]; first compound 3.162 µM): 0.656
- relative viability ([1]; first compound 10 µM): 0.833
- relative viability ([1]; first compound 31.62 µM): 0.62
- relative viability ([1]; first compound 100 µM): 0.753
- relative viability (Bicalutamide + Olaparib; first compound 0.08 µM): 1.1
- relative viability (Bicalutamide + Olaparib; first compound 0.253 µM): 1.15
- relative viability (Bicalutamide + Olaparib; first compound 0.8 µM): 1.26
- relative viability (Bicalutamide + Olaparib; first compound 2.53 µM): 1.06
- relative viability ([2]; first compound 0.08 µM): 0.736
- relative viability ([2]; first compound 0.253 µM): 0.658
- relative viability ([2]; first compound 0.8 µM): 0.838
- relative viability ([2]; first compound 2.53 µM): 0.7

Cell Line: NCI-H1666
- relative viability (Bicalutamide + OSI-027; first compound 0.08 µM): 0.911
- relative viability (Bicalutamide + OSI-027; first compound 0.253 µM): 0.866
- relative viability (Bicalutamide + OSI-027; first compound 0.8 µM): 0.916
- relative viability (Bicalutamide + OSI-027; first compound 2.53 µM): 0.831
- relative viability ([1]; first compound 1 µM): 0.834
- relative viability ([1]; first compound 3.162 µM): 0.896
- relative viability ([1]; first compound 10 µM): 1.02
- relative viability ([1]; first compound 31.62 µM): 0.859
- relative viability ([1]; first compound 100 µM): 0.855
- relative viability (Bicalutamide + Olaparib; first compound 0.08 µM): 0.733
- relative viability (Bicalutamide + Olaparib; first compound 0.253 µM): 0.814
- relative viability (Bicalutamide + Olaparib; first compound 0.8 µM): 0.728
- relative viability (Bicalutamide + Olaparib; first compound 2.53 µM): 0.744
- relative viability ([2]; first compound 0.08 µM): 0.724
- relative viability ([2]; first compound 0.253 µM): 0.706
- relative viability ([2]; first compound 0.8 µM): 0.767
- relative viability ([2]; first compound 2.53 µM): 0.723

Cell Line: LC-2-ad
- relative viability (Bicalutamide + OSI-027; first compound 0.08 µM): 0.962
- relative viability (Bicalutamide + OSI-027; first compound 0.253 µM): 0.718
- relative viability (Bicalutamide + OSI-027; first compound 0.8 µM): 0.885
- relative viability (Bicalutamide + OSI-027; first compound 2.53 µM): 0.684
- relative viability ([1]; first compound 1 µM): 0.294
- relative viability ([1]; first compound 3.162 µM): 0.287
- relative viability ([1]; first compound 10 µM): 0.269
- relative viability ([1]; first compound 31.62 µM): 0.298
- relative viability ([1]; first compound 100 µM): 0.298
- relative viability (Bicalutamide + Olaparib; first compound 0.08 µM): 0.758
- relative viability (Bicalutamide + Olaparib; first compound 0.253 µM): 0.713
- relative viability (Bicalutamide + Olaparib; first compound 0.8 µM): 0.683
- relative viability (Bicalutamide + Olaparib; first compound 2.53 µM): 0.697
- relative viability ([2]; first compound 0.08 µM): 0.808
- relative viability ([2]; first compound 0.253 µM): 0.831
- relative viability ([2]; first compound 0.8 µM): 0.857
- relative viability ([2]; first compound 2.53 µM): 0.909

Cell Line: SW 1573
- relative viability (Bicalutamide + OSI-027; first compound 0.08 µM): 0.629
- relative viability (Bicalutamide + OSI-027; first compound 0.8 µM): 0.734
- relative viability (Bicalutamide + OSI-027; first compound 2.53 µM): 0.656
- relative viability ([1]; first compound 1 µM): 0.783
- relative viability ([1]; first compound 3.162 µM): 0.792
- relative viability ([1]; first compound 10 µM): 0.899
- relative viability ([1]; first compound 31.62 µM): 0.436
- relative viability ([1]; first compound 100 µM): 0.0549
- relative viability (Bicalutamide + Olaparib; first compound 0.08 µM): 0.542
- relative viability (Bicalutamide + Olaparib; first compound 0.253 µM): 0.525
- relative viability (Bicalutamide + Olaparib; first compound 0.8 µM): 0.428
- relative viability (Bicalutamide + Olaparib; first compound 2.53 µM): 0.472
- relative viability ([2]; first compound 0.08 µM): 0.664
- relative viability ([2]; first compound 0.253 µM): 0.457
- relative viability ([2]; first compound 0.8 µM): 0.659
- relative viability ([2]; first compound 2.53 µM): 0.441

Cell Line: ChaGo-K-1
- relative viability (Bicalutamide + OSI-027; first compound 0.08 µM): 0.566
- relative viability (Bicalutamide + OSI-027; first compound 0.253 µM): 0.48
- relative viability (Bicalutamide + OSI-027; first compound 0.8 µM): 0.631
- relative viability (Bicalutamide + OSI-027; first compound 2.53 µM): 0.516
- relative viability ([1]; first compound 1 µM): 0.266
- relative viability ([1]; first compound 3.162 µM): 0.254
- relative viability ([1]; first compound 10 µM): 0.261
- relative viability ([1]; first compound 31.62 µM): 0.27
- relative viability ([1]; first compound 100 µM): 0.259
- relative viability (Bicalutamide + Olaparib; first compound 0.08 µM): 0.4
- relative viability (Bicalutamide + Olaparib; first compound 0.253 µM): 0.423
- relative viability (Bicalutamide + Olaparib; first compound 0.8 µM): 0.466
- relative viability (Bicalutamide + Olaparib; first compound 2.53 µM): 0.446
- relative viability ([2]; first compound 0.08 µM): 0.524
- relative viability ([2]; first compound 0.253 µM): 0.46
- relative viability ([2]; first compound 0.8 µM): 0.561
- relative viability ([2]; first compound 2.53 µM): 0.551

Cell Line: COR-L 105
- relative viability (Bicalutamide + OSI-027; first compound 0.08 µM): 0.644
- relative viability (Bicalutamide + OSI-027; first compound 0.253 µM): 0.555
- relative viability (Bicalutamide + OSI-027; first compound 0.8 µM): 0.614
- relative viability (Bicalutamide + OSI-027; first compound 2.53 µM): 0.572
- relative viability ([1]; first compound 1 µM): 1.25
- relative viability ([1]; first compound 3.162 µM): 1.19
- relative viability ([1]; first compound 10 µM): 1.1
- relative viability ([1]; first compound 31.62 µM): 1
- relative viability ([1]; first compound 100 µM): 0.532
- relative viability (Bicalutamide + Olaparib; first compound 0.08 µM): 0.847
- relative viability (Bicalutamide + Olaparib; first compound 0.253 µM): 0.777
- relative viability (Bicalutamide + Olaparib; first compound 0.8 µM): 0.632
- relative viability (Bicalutamide + Olaparib; first compound 2.53 µM): 0.662
- relative viability ([2]; first compound 0.08 µM): 0.765
- relative viability ([2]; first compound 0.253 µM): 0.6
- relative viability ([2]; first compound 0.8 µM): 0.698
- relative viability ([2]; first compound 2.53 µM): 0.63

Cell Line: Calu-6
- relative viability (Bicalutamide + Olaparib; first compound 0.08 µM): 0.667
- relative viability (Bicalutamide + Olaparib; first compound 0.253 µM): 0.52
- relative viability (Bicalutamide + Olaparib; first compound 0.8 µM): 0.586
- relative viability (Bicalutamide + Olaparib; first compound 2.53 µM): 0.604

Cell Line: EBC-1
- relative viability (Bicalutamide + Olaparib; first compound 0.08 µM): 0.707
- relative viability (Bicalutamide + Olaparib; first compound 0.253 µM): 0.638
- relative viability (Bicalutamide + Olaparib; first compound 0.8 µM): 0.746
- relative viability (Bicalutamide + Olaparib; first compound 2.53 µM): 0.654

Cell Line: NCI-H1299
- relative viability (Bicalutamide + Olaparib; first compound 0.08 µM): 0.993
- relative viability (Bicalutamide + Olaparib; first compound 0.253 µM): 0.942
- relative viability (Bicalutamide + Olaparib; first compound 0.8 µM): 0.974
- relative viability (Bicalutamide + Olaparib; first compound 2.53 µM): 0.864

Cell Line: IA-LM
- relative viability (Bicalutamide + Olaparib; first compound 0.08 µM): 0.959
- relative viability (Bicalutamide + Olaparib; first compound 0.253 µM): 0.738
- relative viability (Bicalutamide + Olaparib; first compound 0.8 µM): 1.08
- relative viability (Bicalutamide + Olaparib; first compound 2.53 µM): 0.943

Cell Line: NCI-H727
- relative viability (Bicalutamide + OSI-027; first compound 0.08 µM): 0.573
- relative viability (Bicalutamide + OSI-027; first compound 0.253 µM): 0.546
- relative viability (Bicalutamide + OSI-027; first compound 0.8 µM): 0.623
- relative viability (Bicalutamide + OSI-027; first compound 2.53 µM): 0.442
- relative viability (Bicalutamide + Olaparib; first compound 0.08 µM): 0.895
- relative viability (Bicalutamide + Olaparib; first compound 0.253 µM): 0.678
- relative viability (Bicalutamide + Olaparib; first compound 0.8 µM): 0.614
- relative viability (Bicalutamide + Olaparib; first compound 2.53 µM): 0.732
- relative viability ([2]; first compound 0.08 µM): 0.994
- relative viability ([2]; first compound 0.253 µM): 0.847
- relative viability ([2]; first compound 0.8 µM): 0.896
- relative viability ([2]; first compound 2.53 µM): 0.991

Cell Line: NCI-H2228
- relative viability (Bicalutamide + OSI-027; first compound 0.08 µM): 0.517
- relative viability (Bicalutamide + OSI-027; first compound 0.253 µM): 0.756
- relative viability (Bicalutamide + OSI-027; first compound 0.8 µM): 0.811
- relative viability (Bicalutamide + OSI-027; first compound 2.53 µM): 0.603
- relative viability ([1]; first compound 1 µM): 0.343
- relative viability ([1]; first compound 3.162 µM): 0.339
- relative viability ([1]; first compound 10 µM): 0.337
- relative viability ([1]; first compound 31.62 µM): 0.357
- relative viability ([1]; first compound 100 µM): 0.341
- relative viability (Bicalutamide + Olaparib; first compound 0.08 µM): 0.748
- relative viability (Bicalutamide + Olaparib; first compound 0.253 µM): 0.536
- relative viability (Bicalutamide + Olaparib; first compound 0.8 µM): 1.16
- relative viability (Bicalutamide + Olaparib; first compound 2.53 µM): 0.524

Cell Line: CAL-12T
- relative viability (Bicalutamide + OSI-027; first compound 0.08 µM): 0.574
- relative viability (Bicalutamide + OSI-027; first compound 0.253 µM): 0.638
- relative viability (Bicalutamide + OSI-027; first compound 0.8 µM): 0.72
- relative viability (Bicalutamide + OSI-027; first compound 2.53 µM): 0.431
- relative viability ([1]; first compound 1 µM): 1.26
- relative viability ([1]; first compound 3.162 µM): 1.05
- relative viability ([1]; first compound 10 µM): 1.25
- relative viability ([1]; first compound 31.62 µM): 1.1
- relative viability ([1]; first compound 100 µM): 1.05
- relative viability (Bicalutamide + Olaparib; first compound 0.08 µM): 0.753
- relative viability (Bicalutamide + Olaparib; first compound 0.253 µM): 0.711
- relative viability (Bicalutamide + Olaparib; first compound 0.8 µM): 0.769
- relative viability (Bicalutamide + Olaparib; first compound 2.53 µM): 0.63
